Among the data in PubChem BioAssay (NCI) are TGI values, retold here.

Common to all, as to assay: growth of human tumour cells (NCI), 48 h
In assay [1] the test system is COLO 205 colon.
Assay [2] concerns DU-145 prostate.
Assay [3] relates to EKVX NSCLC.
Assay [4] has as its system HS 578T breast.
For assay [5], the system named is LOX IMVI melanoma.
For assay [6], the system named is MDA-MB-435.
Assay [7] relates to MOLT-4 leukemia.
Assay [8] deals with NCI-H522 lung.
Assay [9] relates to OVCAR-3 ovarian.
In assay [10] the test system is RXF 393 renal.
The test system of assay [11] is SF-295 CNS.
Assay [12] deals with SK-OV-3 ovarian.
In assay [13] the test system is SN12C renal.
For assay [14], the system named is SNB-19 CNS.
The subject of assay [15] is U251 CNS.
The subject of assay [16] is UO-31 renal.

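Five compound concentrations were applied to cells in 96-well plates for 48 hours; endpoints were derived by simple linear interpolation of the resulting dose-response curve. TGI: concentration producing complete growth inhibition.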

Take `CCN(CC)CCOc1ccc(N2Cc3cc(OC)c(OC)cc3C2=O)cc1`: the TGI in [1], in [2], in assay [3], in [4], in assay [5] and in assay [6] was more than 100 µM each time. For the same compound, the TGI in assay [7], in assay [8], in [9], in [10], in assay [11] and in [12] was more than 100 µM throughout. Moreover, the TGI in assay [13], in assay [14] and in [15] was more than 100 µM each time.

Turning to `COCN1C(=O)[C@@H]2CCCN2C(=O)c2ccc(Cl)cc21`, the TGI in [1], in assay [2], in [3], in assay [4], in assay [5] and in assay [6] was more than 100 µM in each case. In addition, the TGI in [7], in [8], in assay [10], in assay [11], in assay [12] and in assay [13] was more than 100 µM each time. Also, the TGI in assay [14], in [15] and in [16] was more than 100 µM each time.

For `Cc1cc(N(C)C)ccc1N=Nc1ccc2ncccc2c1`, the TGI in assay [1], in [2], in assay [3], in assay [4], in [6] and in assay [7] was more than 100 µM each time. Also, the TGI in [8] is 62.8 µM; in assay [10], more than 100 µM; in [11], more than 100 µM; in assay [12], more than 100 µM; in assay [13], more than 100 µM; in [14] it was 94 µM. Also, the TGI in assay [15] and in assay [16] was more than 100 µM in each case.

Regarding `CCOC(=O)C1C(c2ccccc2)C2(C#N)C(=N)OC1(C)C2(C#N)C#N` (stereo not given), the TGI is 31.5 µM in [1]; more than 100 µM in [2]; more than 100 µM in assay [3]; more than 100 µM in assay [4]; 29.4 µM in [5]; 51.6 µM in [6]. Moreover, the TGI in assay [7] was 56 µM; in assay [10], 35.5 µM; in assay [11] it was more than 100 µM; in assay [12] it was more than 100 µM; in assay [14] it was more than 100 µM; in [15], more than 100 µM. This compound also came in with a TGI in assay [16] of 31.4 µM.

Regarding `CC(C)(Cl)C(Br)CCC(=CCBr)CBr` (mixture of isomers), the TGI in assay [1] stood at 4.91 µM; in [2] it was 21.3 µM; in assay [3] it was 62 µM; in [4], 19.3 µM; in [6] it was 3.56 µM; in [7], 2.88 µM. Further, the TGI is 3.19 µM in [8]; 6.27 µM in assay [9]; 15.7 µM in [10]; 11 µM in assay [11]; 29 µM in [12]; 8.39 µM in assay [13]. For the same compound, the TGI in [14] was determined as 13.1 µM; in [15], 4.09 µM; in assay [16], 3.42 µM.

`CCc1nc2c(n1CC)C(=O)c1ccccc1C2=O`: the TGI in assay [1] was 43.4 µM; in [2], more than 100 µM; in assay [3], more than 100 µM; in [4] it was more than 100 µM; in [6], 32.2 µM; in assay [7] it was more than 100 µM. Moreover, the TGI in assay [8] was 96 µM; in assay [9], 53.9 µM; in assay [10], 51 µM; in assay [11] it was more than 100 µM; in [13], more than 100 µM; in assay [14], more than 100 µM. Also, the TGI in assay [15] was more than 100 µM.

For `CNC(=O)Nn1c(SC)nc2ccccc21`, the TGI in [1], in assay [2], in assay [3], in assay [4], in assay [5] and in assay [6] was more than 100 µM throughout. The TGI in assay [7], in assay [8], in assay [10], in assay [11], in [12] and in [13] was more than 100 µM in each case. The TGI in assay [14], in assay [15] and in assay [16] was more than 100 µM in each case.

With `CC1(C)CCCCC1/C=C/C(CC(O)(C(F)(F)F)C(F)(F)F)=N\Nc1ccc([N+](=O)[O-])cc1[N+](=O)[O-]` (stereo not given), the TGI in [1] came out at 10.8 µM; in assay [2], 13.4 µM; in [4], 40.6 µM; in assay [5], 10.6 µM; in assay [6], 7.9 µM; in assay [7], 5.78 µM. Further, the TGI stood at 13.1 µM in [8]; 14.5 µM in [9]; 1.85 µM in assay [10]; 9.01 µM in assay [11]; 14.8 µM in assay [12]; 31.7 µM in assay [13]. Besides, the TGI in assay [14] turned out to be 19 µM; in assay [15] it was 10.7 µM; in assay [16], 4.15 µM.

On to `Cc1nn(C(=O)c2ccc(Cl)cc2)c2c1C(c1ccccc1)SC(N)=N2` (stereo not given), for which the TGI in assay [1], in assay [2], in assay [3], in assay [4], in assay [5] and in assay [6] was more than 10 µM throughout. For the same compound, the TGI in assay [7], in [8], in assay [9], in [10], in assay [11] and in [12] was more than 10 µM in each case. The TGI in assay [13], in assay [14] and in assay [15] was more than 10 µM throughout.
